PMC8849047, “Salicylate metal-binding isosteres as fragments for metalloenzyme inhibition” (Chemical Science, 2022)
Where two headings read alike, the source gives them in different places.

Experiments:
[1] = molecular target: T1, Recombinant human glyoxalase I (GLO1) (Homo sapiens, UniProt Q04760); assay: GLO1 enzyme inhibition assay (absorbance at 240 nm); assay type: biochemical; conditions: for inhibition at 100 µM: read-out: %inhib GLO1; for IC50: dose-response curves, read-out: IC50 against GLO1
T1 construct: purchased R&D Systems 4959-GL
T1 sequence (Q04760 2-184 limits assumed): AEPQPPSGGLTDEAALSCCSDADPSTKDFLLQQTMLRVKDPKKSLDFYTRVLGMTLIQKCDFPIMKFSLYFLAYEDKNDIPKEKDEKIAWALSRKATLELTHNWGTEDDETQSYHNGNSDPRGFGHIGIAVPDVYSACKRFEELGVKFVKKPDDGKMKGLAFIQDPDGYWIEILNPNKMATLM
Method: To evaluate if the salicylate MBIs could serve as starting points for future FBDD campaigns, the MBI library was screened for inhibitory activity against human glyoxalase I (GLO1) at fragment concentrations of 100 μM (Table 2). […] Recombinant human glyoxalase I (GLO1) was purchased from R&D Systems (catalog #4959-GL). Assays were carried out in 0.1 M sodium phosphate, pH 7.0 buffer, utilizing 96-well clear UV plates (Corning UV Transparent Microplates, catalog #3635). A fresh solution of GSH (100 mM) and methylglyoxal (MG) (100 mM) was prepared in Millipore grade water. […] The substrate mixture was vortexed vigorously for 45 s and then allowed to sit at room temperature for 15 min. The initial well volume was 50 μL containing GLO1 (40 ng) and inhibitor. This protein and inhibitor mixture was incubated for 15–20 min prior to addition of the substrate. […] The enzyme activity was measured utilizing a Biotek Synergy HT or H4 plate reader by measuring absorbance at 240 nm every 1 min for a duration of 8 min. The rate of absorbance increase was compared for samples versus controls containing no inhibitor (set at 100% activity). The absorbance reading for background wells containing DMSO, buffer, and substrate (no enzyme or inhibitor) was subtracted from the experimental wells. […] Dose-response curves were generated, analysed and fitted to obtain IC50 values (see ESI ^†).
5. Single Point screening
Single point screening of salicylate MBI library against GLO1 at 100 µM inhibitor concentration. Chugai 1 (4,6-diphenyl-N-hydroxypyridone) 4 as positive control. […]
6. Dose-response curves against GLO1
The raw data from the GLO1 assay was background corrected and normalized from 0 to 100 with 100 being the largest mean of each dataset. A variable slope log-logistic model was chosen for curve fitting.
The corresponding datapoints are shown as empty bullets and were not included in the curve-fitting. The resulting restricted datasets were fitted according to a literature procedure setting the lower limit of the dose-response curve to zero. This compensates for the loss of information caused by trimming of the dataset. 5,6
Figure S7. Dose-response curve of 11 against GLO1.

[2] = molecular target: T2, Human recombinant MMP-3 catalytic domain (Homo sapiens, UniProt P08254); assay: MMP-3 enzyme inhibition assay (chromogenic substrate, 412 nm); assay type: biochemical; conditions: standard deviation in parentheses, read-out: %inhib MMP-3
T2 construct: Human recombinant MMP-3 catalytic domain was purchased; purchased ENZO Life Sciences BML-SE109-9090
Method: To probe the selectivity of the salicylate MBIs, the library was screened against matrix metalloproteinase-3 (MMP-3) at fragment concentrations of 100 μM (Table 2).
Human recombinant MMP-3 catalytic domain was purchased from ENZO Life Sciences (catalog # BML-SE109-9090). Assays were carried out in clear Costar 96-well, half-area, flat-bottom assay plates (catalog # 80-2404). Each well contained a total volume of 100 μL including buffer (50 mM MES, 10 mM CaCl2, 0.05% Brij-35, 1 mM DNTB, pH 6.0), MMP-3 (2 U), and the fragment solution. After a 30 min incubation period at 37 °C, the reaction was initiated by the addition of 10 μL of chromogenic MMP-3 substrate (100 μM final concentration, Ac-Pro-Leu-Gly-[2-mercap-to-4-methyl-pentanoyl]-Leu-Gly-OC2H5, ENZO Life Sciences, catalog #BML-P125-0005). Absorbance was monitored at 412 nm using a Bio-Tek ELx 808 colorimetric plate reader, and measurements were recorded every minute for 10 min. The rate of absorbance increase was compared for samples versus negative controls (no inhibitor, arbitrarily set as 100% activity).
5. Single Point screening […]
Figure S5. Single point screening of salicylate MBI library against MMP-3 at 100 µM inhibitor
concentration. NNGH as positive control.

[3] = log P by potentiometric titration octanol/water (Sirius T3); log D7.4 calculated from pKa and log P; assay type: physicochemical; conditions: for logD: pH 7.4
Method: In addition to gaining an understanding about the metal coordinating properties of the salicylate MBIs by using [(Tp^Ph,Me)Zn(MBI)] model complexes, the physicochemical properties of the MBIs were also studied. The acidity (pKa) and lipophilicity (log P) were measured using potentiometric methods and the lipophilicity at physiological pH (log D7.4) was calculated from these two values (Table 1).[23–25]
(§1) Physicochemical properties were determined using a Sirius T3 instrument.[23–25] […] The pKa of a compound was determined by analysing each MBI sample in triplicate using potentiometric titrations. Experiments were typically performed over a pH range of 2.0–12.0. Standard deviations were derived from fitting all three replicate experiments. For water insoluble compounds methanol was added and the obtained apparent pKa (psKa) was extrapolated to the aqueous pKa by the Yasuda–Shedlovsky procedure. log P was determined via potentiometric titrations in the presence of varying ratios of octanol and water. The presence of octanol shifts the pKa of ionizable species, and based on the shifts, a log P can be determined. Measurements for log P determination were typically performed over a pH range of 2.0–12.0. Three experiments with varying ratios of water:octanol was performed, allowing for a standard deviation to be determined from the fitting of all measurements. MBI sample sizes were ∼0.5 mg for both pKa and log P measurements.

[4] = pKa by potentiometric titration (Sirius T3); assay type: physicochemical
Method: In addition to gaining an understanding about the metal coordinating properties of the salicylate MBIs by using [(Tp^Ph,Me)Zn(MBI)] model complexes, the physicochemical properties of the MBIs were also studied.
as §1

[5] = test system: influenza H1N1 N-terminal PA endonuclease (PAN); assay: PAN endonuclease inhibition assay (fluorescent ssDNA-oligo substrate); assay type: biochemical; conditions: 100 μM; standard deviation in parentheses
[6] = 100 μM, standard deviation in parentheses
[7] = calculated from measured pKa and log P, read-out: log D7.4
[8] = potentiometric, octanol/water, read-out: log P
[9] = potentiometric, 0.15 M KCl, triplicate, read-out: pKa (pKa,1)

T2 sequence (P08254 100-272 limits assumed): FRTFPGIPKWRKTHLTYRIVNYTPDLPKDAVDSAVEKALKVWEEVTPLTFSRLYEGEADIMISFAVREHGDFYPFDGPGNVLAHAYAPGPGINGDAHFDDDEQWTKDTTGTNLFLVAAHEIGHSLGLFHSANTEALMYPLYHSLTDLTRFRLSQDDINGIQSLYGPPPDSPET

Row | Structure (SMILES) | inhibition at 100 µM [1, 6] [%] | inhibition at 100 µM [2] [%] | logP [3] | logD [3] | pKa ([4]; pKa) | pKa ([4]; pKa (pKa,1)) | %inhib Endo (PAN) [5] | logD [3, 7] | logP [3, 8] | inhibition at 100 µM [1] [%] | pKa [4, 9] | pKa ([4]; potentiometric, 0.15 M KCl, triplicate, read-out: pKa) | IC50 [1] [µM] | pKa ([4]; pKa (third printed value))
1 | c1cc(-c2nnn[nH]2)c2[nH]cnc2c1 [Compound 22] | 50 | 74 | – | – | – | – | – | – | – | – | – | – | – | –
2 | Oc1ccccc1-c1ncccn1 [Compound 10] | 15 | 0 | – | – | – | – | – | – | – | – | – | – | – | –
3 | CONC(=O)c1cccc2nn[nH]c12 [Compound 19] | 17 | 0 | 0.75 | 0.22 | 9.93 | 6.99 | 31 (7) % | – | – | – | – | – | – | –
4 | COC(=O)c1ccccc1NS(C)(=O)=O [Compound 12] | – | 12 | – | – | – | – | 33 (11) % | 1.49 | 1.51 | 18 | 8.86 | – | – | –
5 | CS(=O)(=O)Nc1ccccc1-c1nnn[nH]1 [Compound 20] | – | 3 | – | – | – | – | 43 (4) % | -0.43 | 1.18 | 10 | 3.62 | 9.52 | – | –
6 | CONC(=O)c1cccc2oc(=O)[nH]c12 [Compound 17] | 33 | 0 | 0.4 | 0.18 | 12.5 | 7.58 | 23 (6) % | – | – | – | – | – | – | –
7 | CONC(=O)c1ccccc1O [Compound 7] | 22 | 0 | 0.85 | 0.49 | 12 | 7.23 | 46 (8) % | – | – | – | – | – | – | –
8 | O=C(O)c1cccc2oc(=O)[nH]c12 [Compound 3] | 29 | 0 | 1.28 | -2.47 | 10.3 | 3.65 | 11 (7) % | – | – | – | – | – | – | –
9 | Oc1ccc(N2CCCCC2)cc1-c1nc2ccccc2s1 [Compound 11d] | – | – | – | – | – | – | – | – | – | – | – | – | > 20 | –
10 | COC(=O)c1cccc2nn[nH]c12 [Compound 15] | 22 | 0 | 1.31 | 1.21 | – | 7.96 | 42 (6) % | – | – | – | – | – | – | –
11 | CONC(=O)c1cccc2nc[nH]c12 [Compound 18] | 20 | 0 | 0.05 | 0.01 | 8.4 | 4.23 | 22 (7) % | – | – | – | – | – | – | > 12
12 | OC1(c2cccc3nn[nH]c23)COC1 [Compound 24] | 19 | 0 | – | – | – | – | 32 (8) % | – | – | – | – | – | – | –
13 | O=C(O)c1cccc2nc[nH]c12 [Compound 4] | 38 | 3 | -1.4 | -2.09 | 5.49 | 3.04 | 0% | – | – | – | – | – | – | 12.8
14 | Oc1ccc(N2CCCC2)cc1-c1nc2ccccc2s1 [Compound 11f] | – | – | – | – | – | – | – | – | – | – | – | – | 4.4 ± 1.8 | –
15 | CONC(=O)c1ccccc1NS(C)(=O)=O [Compound 16] | 16 | 0 | 0.12 | -0.33 | 11.3 | 7.15 | 44 (6) % | – | – | – | – | – | – | –
